In data set [1] the test system is Escherichia coli BL21. Nature of the data set: Growth inhibition of Escherichia coli BL21 expressing MVK, PMK, MDD and fed MVA. It is filed as cell-based. The conditions noted are these: 5.8 mM MVA. As for the experimental part:
FIG. 145 is a graph of growth curves for cultures of BL21 expressing MVK, circles; MVK+PMV, triangles; MVK+PMV+MDD, squares. Cultures were either fed 5.8 mM MVA, filled symbols, or grown without addition of MVA, open symbols. Y-axis is OD600. Samples were taken for analysis at times indicated by the arrow. Numbers above the arrows correspond to E. coli BL21 cells bearing pTrcK, representing a plasmid expressing MVK (#5), pTrcKK representing a plasmid expressing MVK plus PMK (#7), and pTrcKKD, representing a plasmid expressing MVK plus PMK plus MDD (#6) were grown.
The purpose of this experiment was to determine the effect of the expression of the proteins mevalonate kinase (MVK), phophomevalonate kinase (PMK), and diphosphomevalonate decarboxylase (MDD) of Escherichia coli cultures.
E. coli BL21 cells bearing pTrcK, representing a plasmid expressing MVK, pTrcKK representing a plasmid expressing MVK plus PMK, and pTrcKKD, representing a plasmid expressing MVK plus PMK plus MDD were grown at approximately 30° C. and 250 rpm in 250 mL flasks containing 25 mL of TM3 medium (13.6 g K2PO4, 13.6 g KH2PO4, 2.0 g MgSO4*7H2O) supplemented with 1% glucose and 0.8 g/L Biospringer yeast extract (1% Yeast extract final). When OD600 reached 0.8 to 0.9, 5.8 mM mevalonic acid was added to the cultures and incubation was continues for an additional 5 hours. OD600 measurements were taken, and the cultures were sampled for metabolite analysis at 2 hours post MVA addition. Samples were collected into 100% MeOH prechilled in dry ice in a ratio of 1:1. Samples were stored at −80° C. until analyzed as follows. The methanol-quenched cells were pelleted by centrifugation and the resulting supernatant was loaded onto Strata-X-AW anion exchange column (Phenomenex) containing 30 mg of sorbent. The pellet was reextracted twice with several milliliters of 50%, v/v, aqueous methanol containing 20% ammonium bicarbonate buffer (pH=8.0) and then with 75%, v/v, aqueous bicarbonate-buffered methanol. […]

The conditions of data set [2]: about 1 atmosphere and about 60° F.; cited from earlier work.
Data set [3] in a line: Flammability modeling (CAFT) and experimental flammability testing of isoprene. It is filed as physicochemical. An excerpt:
Thus, computer modeling and experimental testing were used to determine the flammability limits of isoprene (such as isoprene in the presence of O2, N2, CO2, or any combination of two or more of the foregoing gases) in order to ensure process safety. The flammability envelope is characterized by the lower flammability limit (LFL), the upper flammability limit (UFL), the limiting oxygen concentration (LOC), and the limiting temperature. For a system to be flammable, a minimum amount of fuel (such as isoprene) must be in the presence of a minimum amount of oxidant, typically oxygen. The LFL is the minimum amount of isoprene that must be present to sustain burning, while the UFL is the maximum amount of isoprene that can be present. Above this limit, the mixture is fuel rich and the fraction of oxygen is too low to have a flammable mixture. The LOC indicates the minimum fraction of oxygen that must also be present to have a flammable mixture. The limiting temperature is based on the flash point of isoprene and is that lowest temperature at which combustion of isoprene can propagate. […]
The LOC was determined to be 9.5 vol % for an isoprene, O2, N2, and CO2 mixture at 40° C. and 1 atmosphere. […]
Calculated adiabatic flame temperatures (CAFT) along with a selected limit flame temperature for combustion propagation were used to determine the flammability envelope for isoprene. […]

On to `C[C@@](O)(CCO)CC(=O)O` [MVA, mevalonic acid], for which the “growth (OD600)” value in data set [1] (BL21 pTrcK, MVK only (strain #5)) is recorded as “No growth inhibition was observed”; in data set [1] (BL21 pTrcKK, MVK plus PMK (strain #7)), “inhibition of growth was evident”; in data set [1] (BL21 pTrcKKD, MVK plus PMK plus MDD (strain #6)), “additional inhibition is observed”.
Take `CCO` [ethanol]: in data set [2], the LFL entry was “about 3.3 vol %” and the LOC result is “about 8.7 vol %”.
As for `C=CC(=C)C` [isoprene, 2-methyl-1,3-butadiene], in data set [3] (isoprene, O2, N2, and CO2 mixture at 40° C. and 1 atmosphere), the “limiting oxygen concentration (LOC)” value is on record as 9.5 vol %. Also, the limiting temperature result in data set [3] (lowest temperature at which combustion of isoprene can propagate) is “about −54 °C”.

Source of the values: patent US20100184178A1, “INCREASED ISOPRENE PRODUCTION USING MEVALONATE KINASE AND ISOPRENE SYNTHASE” (priority 2008, published 2010).
